In patent US20240350643A1, “PROTEIN DEGRADATION AGENT” (SUZHOU KINTOR PHARMACEUTICALS, INC., priority 2021, published 2024):
Read-outs that look alike come from different tables or passages of the source.

Columns and labels:
c-Myc protein = molecular target: T1, c-Myc protein (Homo sapiens, UniProt P01106); experiment: Ability of compounds to degrade c-Myc protein in HL60 cells (ELISA); type: cell-based; details: HL-60, 1 μM compound, 24 h, read-out: HL60 cells Protein degradation rate (1 μM)
T1 construct: endogenous in cells; host or cells: HL60 cells
T1 sequence (P01106 whole entry): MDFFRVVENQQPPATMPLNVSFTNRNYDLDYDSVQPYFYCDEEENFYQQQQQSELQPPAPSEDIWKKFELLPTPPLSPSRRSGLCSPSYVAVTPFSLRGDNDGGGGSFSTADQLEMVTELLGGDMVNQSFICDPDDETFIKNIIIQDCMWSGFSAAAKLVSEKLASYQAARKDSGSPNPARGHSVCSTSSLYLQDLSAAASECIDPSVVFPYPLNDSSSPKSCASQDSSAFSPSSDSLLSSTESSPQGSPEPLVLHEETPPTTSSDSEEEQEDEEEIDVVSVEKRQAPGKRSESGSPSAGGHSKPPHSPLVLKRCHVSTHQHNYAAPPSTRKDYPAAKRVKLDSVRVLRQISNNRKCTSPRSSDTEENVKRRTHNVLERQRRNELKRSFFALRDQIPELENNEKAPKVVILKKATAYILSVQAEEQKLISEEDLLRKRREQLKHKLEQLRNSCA
Experimental: I Activity test 1: Ability of compounds to degrade c-Myc protein in HL60 cells:
HL60 cells in the exponential growth phase were centrifuged, diluted with fresh culture mediums to 6×10^4 cells/100 μL and plated into a 96-well plate at 100 μL per well.
Preparation of test compounds: the compounds were weighed and diluted with DMSO to a 10 mM stock solution for later use. According to test requirements, drugs were diluted with cell culture mediums, with ten-fold dilutions starting from 10 μM, to achieve 3 concentration gradients: 10 μM, 1 μM and 100 NM; and finally, 1 μL of the drugs (DMSO content: 0.01%) were added to each well. For the blank control group, DMSO was also diluted with cell culture mediums, and finally, 1 μL of the control reagent (DMSO content: 0.01%) was added to each well.
3. Effect of drugs on c-Myc in cells as determined by ELISA
After 24 h of drug action, the culture mediums were removed, and the cells were washed once with ice-cold 1× PBS. PBS was removed, and 100 μL of ice-cold 1× Cell Lysis Buffer plus 1 mM phenylmethylsulfonyl fluoride (PMSF) was added to each well. The plate was incubated on ice for 20 min and centrifuged at 4000 RPM at 4° C. for 10 min for later use.
4. Reagent and antibody preparation in ELISA kit 1× wash buffer • 1). 16 mL of ELISA wash buffer concentrate (25×) was diluted with 384 mL of deionized water or distilled water, labeled as 1× Wash Buffer. • 2). The concentrate and 1× Wash Buffer were stored in the refrigerator. The diluted buffer was used within 14 days.
The cell extraction buffer contains 10 mM Tris (pH 7.4), 100 mM NaCl, 1 mM EDTA, 1 mM EGTA, 1 mM NaF, 20 mM Na4P2O7 2 mM Na3VO4. 1% Triton™ ×-100, 10% glycerol, 0.1% SDS and 0.5% deoxycholate. Immediately before use, PMSF (0.3 M stock solution in DMSO) was added to the buffer to a final concentration of 1 mM.
Standard curve configuration: The standard liquid was diluted using glass or plastic tubes. • 1). Huc-Myc (total) standard liquid (Invitrogen, KH02041) was reconstituted with a standard dilution to 1000 pg/mL. Refer to the standard vial label for instructions. The contents were gently swirled or mixed and then allowed to stand for 10 minutes to ensure complete reconstitution, labeled as 1,000 pg/mL human c-Myc. The standard liquid was used within 1 hour after reconstitution. • 2). 250 μL of standard dilution buffers were added to 7 test tubes respectively labeled 500, 250, 125, 62.5, 31.25, 15,63 and 0 pg/mL. • 3). 250 μL of the 1000 pg/ml standard stock solution was added to the first EP tube to a concentration of 500 pg/mL, vortexed and mixed evenly. 250 μL of the resulting mixture was further pipetted and added to the second EP tube to a concentration of 250 pg/mL. Serial dilutions were performed until the sixth EP tube with a concentration of 15.63 pg/mL. Dilution was not performed on the last EP tube. • 4). The remaining reconstituted standard liquid should be discarded, or aliquoted and frozen at −80° C. for further use. Standards can be frozen and thawed only once without losing immunoreactivity.
1× anti-rabbit IgG HRP solution: 1× anti-rabbit IgG HRP solution was prepared within 15 minutes of use. The anti-rabbit IgG HRP (100×) contained 50% viscous glycerol. To ensure accurate dilutions, the following operations were carried out: 1 For each 8-well test strip used in the test, 10 μl, of the anti-rabbit IgG -IRP (100×) solution was pipetted, wherein the pipette tip was wiped with clean absorbent paper to remove excess solutions, and then the solution was dispensed into a test tube containing 1 mL of HRP diluent and mixed thoroughly. 2. The unused anti-rabbit IgG HRP (100×) was placed in the refrigerator for storage.
50 μL of the standard liquid was added to the appropriate wells and not added to the blank control well. Except for the blank control well, 50 μL of Hu c-Myc (total) detection antibody solution was added to each well and mixed by tapping the side face of the plate. […]

HL60 cells = experiment: Anti-proliferation ability of compounds on HL60 cells (CTG); type: cell-based, human; details: 3 days, CellTiter-Glo, read-out: HL60 cells Proliferation inhibitory activity
Experimental: II. Activity test 2: Anti-proliferation ability of compounds on HL60 cells: 1 Cell plating
HL60 cells in the logarithmic growth phase were counted and plated evenly in a 96-well transparent bottom white plate at 20000 cells per well and 100 μL per well.
A certain amount of the compounds was weighed and diluted with DMSO to a 10 mM stock solution. The culture mediums corresponding to the cells were taken, and the drugs were diluted to the concentration required by the test, shaken gently and mixed evenly. 50 μl of the gradient dilution of the diluted compound was added to each well of the plated cells, and 50 μL of 0.1% DMSO was added to the control group. The plate was shaken gently, mixed evenly and incubated in a cell culture incubator for 3 days.
• 3.1 The CellTiter-GLo™ (CTG) reagent was taken in advance from the −20° C. refrigerator and equilibrated to room temperature in the dark (white bottle+brown bottle, 1:1 mixing evenly into the brown bottle, for later use). • 3.2 The 96-well plate was taken out and inspected under a microscope for growth situation. • 3.3 The bottom of the 96-well plate was tagged with white paper, and then the plate was wrapped with tin foil paper, shaken at 37° C. at 300 r for 10 min and mixed evenly. • 3.4 50 ul of CTG detection reagent was added to each well, Luminescence signal was detected using a microplate reader, and the inhibition rate was calculated. IC50 values of the compounds were calculated by XLfit software to evaluate the proliferation inhibitory activity on HL60 cells.

O=C(Cn1c2ccccc2c2ccccc21)NCCCCCCNC(=O)c1ccc2c(c1)C(=O)N(C1CCC(=O)NC1=O)C2=O (stereo not shown) [A1]
inhibition at 1 µM (c-Myc protein): 30 to 60% | IC50 (HL60 cells; Homo sapiens, HL-60, 72 h): 335 ± 83.1 nM

O=C(Cn1c2ccccc2c2cccnc21)NCCCCCCNC(=O)c1ccc2c(c1)C(=O)N(C1CCC(=O)NC1=O)C2=O (stereo not shown) [A2]
inhibition at 1 µM (c-Myc protein): 30 to 60% | IC50 (HL60 cells; Homo sapiens, HL-60, 72 h): 50.7 ± 11.4 nM

O=C(Cn1c2ccccc2c2ccncc21)NCCCCCCNC(=O)c1ccc2c(c1)C(=O)N(C1CCC(=O)NC1=O)C2=O (stereo not shown) [A3]
inhibition at 1 µM (c-Myc protein): 30 to 60%

O=C(Cn1c2ncccc2c2cccnc21)NCCCCCCNC(=O)c1ccc2c(c1)C(=O)N(C1CCC(=O)NC1=O)C2=O (stereo not shown) [A4]
inhibition at 1 µM (c-Myc protein): 10 to 30% | IC50 (HL60 cells; Homo sapiens, HL-60, 72 h): 221 ± 54.5 nM

O=C(CN(c1ccccc1)c1ccccc1)NCCCCCCNC(=O)c1ccc2c(c1)C(=O)N(C1CCC(=O)NC1=O)C2=O (stereo not shown) [A5]
inhibition at 1 µM (c-Myc protein): 30 to 60% | IC50 (HL60 cells; Homo sapiens, HL-60, 72 h): 391 ± 4.7 nM

O=C(CN1c2ccccc2Oc2ccccc21)NCCCCCCNC(=O)c1ccc2c(c1)C(=O)N(C1CCC(=O)NC1=O)C2=O (stereo not shown) [A7]
inhibition at 1 µM (c-Myc protein): 30 to 60% | IC50 (HL60 cells; Homo sapiens, HL-60, 72 h): 320 ± 38 nM

O=C(Cc1cccc2ccccc12)NCCCCCCNC(=O)c1ccc2c(c1)C(=O)N(C1CCC(=O)NC1=O)C2=O (stereo not shown) [A8]
inhibition at 1 µM (c-Myc protein): 30 to 60% | IC50 (HL60 cells; Homo sapiens, HL-60, 72 h): 69.8 ± 8.8 nM

O=C(Cc1ccc2ccccc2c1)NCCCCCCNC(=O)c1ccc2c(c1)C(=O)N(C1CCC(=O)NC1=O)C2=O (stereo not shown) [A9]
inhibition at 1 µM (c-Myc protein): 30 to 60% | IC50 (HL60 cells; Homo sapiens, HL-60, 72 h): 570 ± 38 nM

O=C1CCC(N2C(=O)c3ccc(C(=O)NCCCCCCNC(=O)NC4c5ccccc5-c5ccccc54)cc3C2=O)C(=O)N1 (stereo not shown) [A10]
inhibition at 1 µM (c-Myc protein): 10 to 30% | IC50 (HL60 cells; Homo sapiens, HL-60, 72 h): 1213 ± 4 nM

O=C(CC1c2ccccc2-c2ccccc21)NCCCCCCNC(=O)c1ccc2c(c1)C(=O)N(C1CCC(=O)NC1=O)C2=O (stereo not shown) [A11]
inhibition at 1 µM (c-Myc protein): 10 to 30% | IC50 (HL60 cells; Homo sapiens, HL-60, 72 h): 1240 ± 490 nM

O=C1CCC(N2C(=O)c3ccc(C(=O)NCCCCCCNC(=O)n4c5ccccc5c5ccccc54)cc3C2=O)C(=O)N1 (stereo not shown) [A12]
inhibition at 1 µM (c-Myc protein): 30 to 60% | IC50 (HL60 cells; Homo sapiens, HL-60, 72 h): 1060 ± 62 nM

O=C(CCn1c2ccccc2c2ccccc21)NCCCCCCNC(=O)c1ccc2c(c1)C(=O)N(C1CCC(=O)NC1=O)C2=O (stereo not shown) [A13]
inhibition at 1 µM (c-Myc protein): 10 to 30% | IC50 (HL60 cells; Homo sapiens, HL-60, 72 h): 1270 ± 51 nM

O=C(Cn1c2ccccc2c2ccccc21)NCCCCCCCCNC(=O)c1ccc2c(c1)C(=O)N(C1CCC(=O)NC1=O)C2=O (stereo not shown) [A14]
inhibition at 1 µM (c-Myc protein): 30 to 60% | IC50 (HL60 cells; Homo sapiens, HL-60, 72 h): 226 ± 72 nM

O=C1CCC(N2Cc3cc(C(=O)NC[C@H]4CC[C@H](NC(=O)NCc5cccc6ccccc56)CC4)ccc3C2=O)C(=O)N1 (stereo partly shown) [A198]
IC50 (HL60 cells; Homo sapiens, HL-60, 72 h): 17.8 ± 1.9 nM

O=C(CN1CCCc2cccnc21)NCc1ccc(CNC(=O)c2ccc3c(c2)CN(C2CCC(=O)NC2=O)C3=O)cc1 (stereo not shown) [A202]
IC50 (HL60 cells; Homo sapiens, HL-60, 72 h): 6.4 ± 2.7 nM

CN(CCn1c2ccccc2c2cccnc21)Cc1ccc(CC(=O)Nc2ccc3c(c2)CN(C2CCC(=O)NC2=O)C3=O)cc1 (stereo not shown) [A206]
IC50 (HL60 cells; Homo sapiens, HL-60, 72 h): 0.5 ± 0.2 nM

O=C(Cn1c2ccccc2c2cccnc21)NCc1ccc(CNC(=O)c2ccc3c(c2)CN(C2CCC(=O)NC2=O)C3=O)c(OC(F)(F)F)c1 (stereo not shown) [A207]
IC50 (HL60 cells; Homo sapiens, HL-60, 72 h): 0.2 nM

O=C(Cn1c2ccccc2c2cccnc21)NCc1ccc(CNC(=O)c2ccc3c(c2)CN(C2CCC(=O)NC2=O)C3=O)c(C(F)(F)F)c1 (stereo not shown) [A209]
IC50 (HL60 cells): 0.9 nM

N#Cc1cc(CNC(=O)Cn2c3ccccc3c3cccnc32)ccc1CNC(=O)c1ccc2c(c1)CN(C1CCC(=O)NC1=O)C2=O (stereo not shown) [A210]
IC50 (HL60 cells; Homo sapiens, HL-60, 72 h): 3.6 ± 1.8 nM
